# Assay results published in publication PMC12595484, “Optimizing multifunctional fluorescent ligands for intracellular labeling” (Proceedings of the National Academy of Sciences of the …, 2025).
# Experiments:
# [1] = Determination of lactone–zwitterion equilibrium constant KL–Z; type: physicochemical; conditions: 1:1 (v/v) dioxane–water
# Description: Detailed descriptions of the materials and methods are provided in the supporting information. Multifunctional rhodamine–HaloTag ligands (13HTL–16HTL and 18HTL–20HTL) were synthesized using palladium-catalyzed cross-coupling reactions to install 3-carboxyazetidine moieties onto rhodamine scaffolds, followed by amide bond formation with biotin–PEG2–NH2, (S)-JQ1–PEG2–NH2, or (R)-JQ1–PEG2–NH2. Spectroscopic properties (λabs, λem, ε, and Φf) were determined in 10 mM HEPES, pH 7.3. The lactone–zwitterion equilibrium constants (KL–Z) were measured in 1:1 (v/v) dioxane–water mixtures. Octanol–water distribution coefficients (logD7.4) were determined by miniaturized shake-flask partitioning experiments using PBS (pH 7.4) and 1-octanol. Cell culture experiments employed HEK293T, U2OS, and Neuro2a cells transfected with HaloTag fusion constructs and labeled with ligands (100 nM to 1 μM, 0.5 to 2 h at 37 °C), followed by fluorescence microscopy using confocal or lattice light-sheet microscopy. Affinity purification studies utilized streptavidin magnetic beads to capture biotin-labeled HaloTag conjugates, with analysis by SDS-PAGE and in-gel fluorescence detection. […]
# Reported values for extinction coefficient (ε) are averages of at least two […]
# Determination of KL−Z. The lactone−zwitterion equilibrium constant (KL−Z) was calculated as described previously2-4 using equation 1: […]
# where εdw is the extinction coefficient of the dyes in a 1:1 (v/v) dioxane:water solvent mixture containing 0.01% (v/v) triethylamine; this dioxane−water mixture was chosen to give a large range of KL−Z values,3 and the triethylamine additive ensures the rhodamines are in the net neutral form.
# The εmax is the maximal extinction coefficient, measured in 0.1% (v/v) trifluoroacetic acid in 2,2,2-trifluoroethanol (TFE) or ethanol. […]
# [2] = tested on: mitochondria from HEK293T cells expressing OMP25–msGFP–HaloTag; assay: Affinity capture of mitochondria with streptavidin beads, in-gel fluorescence; type: cell-based; conditions: for capture efficiency: 100 nM ligand, mean ± SEM; for mitochondria pulldown efficiency at 10-fold higher concentration: 1 µM ligand vs 100 nM
# Description: We then used 15HTL and 16HTL to purify mitochondria from these cells by incubation followed by washing and cell lysis. The crude supernatant was incubated with streptavidin-coated magnetic microbeads and washed. The bead-bound mitochondria were lysed, and the resulting solution was analyzed by SDS–PAGE/in-gel fluorescence (Fig. 5 A and B). […] The lower in-gel fluorescence brightness for the wash and bound fractions of 15HTL or 16HTL compared to the wash and bound fractions of their parent dyes 5HTL or 6HTL (Fig. 5 B and C) stems from the variability of transient transfection and band broadening due to the larger ligand. […]
# Affinity capture and in-gel fluorescence quantification. Affinity capture pulldown isolation experiments of biotin-labeled HaloTag fusion proteins were performed on ice-cold isolation buffer (IB) consisting of KCl (0.18 M), ethylene glycol-bis(β-aminoethyl ether)-N,N,N′,N′-tetraacetic acid (EGTA; 1 mM), 3-(N-morpholino)propanesulfonic acid (MOPS; 5 mM); the pH was adjusted to pH = 7.35 using KOH(aq).15 StrepTactin Microbeads (IBA Lifesciences, 6-5510-050) were used as capture reagents as these beads had lowest amount of background observed in our hands. These beads were kept at 4 °C and blocked in IB buffer with PMSF and 1% (v/v) bovine serum albumin (BSA; Jackson ImmunoResearch, 001-000-162) with rotation at 4 °C for 30 min. HEK293T cells were scraped with 200 µL IB and homogenized using 12 strokes with a 27G syringe. The resulting homogenate was spun at 4 °C at 800 g for 5 min to pellet large cellular debris. 50 µL of freshly blocked StrepTactin microbeads were added to the supernatant and incubated for 30 min at 4 °C with slow rotation. After incubation, tubes were placed in DynaMag2 (ThermoFisher, 12321D) magnetic racks and washed twice with IB+PMSF. All wash steps were kept at 4 °C (cold room).
# The post-bead supernatant and wash volumes were pooled and spun at 15,000 g for 12 min. This last step pelleted the unbound mitochondria for final analysis of capture efficiency. The bead fraction and the pooled/pelleted fraction were then solubilized using the lysis buffer containing 1× PBS, 2% (v/v) SDS, 1% (v/v) Triton x-100, 10 mM EDTA, and protease inhibitors (2 mM PMSF, aprotinin, leupeptin, and pepstatin A). Samples were then incubated at 50 °C for 3–4 min after the addition of Laemmli sample buffer (SB; Bio-Rad, 1610747) with β-mercaptoethanol (Bio-Rad, 1610710). For protein detection, 10–20 µL of the sample was subjected to SDS-PAGE, using 10% Tris-Glycine gels (TGX) (Bio-Rad, 5671034) with Tris-Glycine buffer (Bio-Rad, 1610732). The affinity capture pulldown efficiency was monitored using in-gel fluorescence. The msGFP signal from HaloTag-TEV-4×GS-msGFP-mito after cell lysis and SDS-PAGE was analyzed, in-gel, using a Bio-Rad Chemidoc MP imager (Bio-Rad) through GFP fluorescence excitation and emission filters. Data were quantified by densitometry using Fiji.14 Capture efficiency was calculated comparing the total GFP signal recovered from StrepTactin beads vs the signal recovered from the high speed spin of the bead supernatant and pooled wash volumes. […]
SMILES,KL–Z [1],protein capture ([2]; biotin-free ligands),capture efficiency [2],mitochondria pulldown efficiency at 10-fold higher concentration [2]
"C[Si]1(C)c2cc(N3CC(F)C3)ccc2C2(OC(=O)c3ccc(C(=O)NCCOCCOCCCCCCCl)cc32)c2ccc(N3CC(F)C3)cc21 [6HTL, JF635–HaloTag ligand, reference compound]",0.0048,no appreciable protein capture,–,–
"O=C(CCCCC1SCC2NC(=O)NC21)NCCOCCOCCNC(=O)C1C[N+](=c2ccc3c(-c4cc(C(=O)NCCOCCOCCCCCCCl)ccc4C(=O)[O-])c4ccc(N5CCC5)cc4oc-3c2)C1 (stereo not shown) [13HTL, biotin–JF549–HaloTag ligand]",5.9,–,–,–
"CC1(C)C2=CC(=[N+]3CC(C(=O)NCCOCCOCCNC(=O)CCCC[C@@H]4SC[C@@H]5NC(=O)N[C@@H]54)C3)C=CC2=C(c2cc(C(=O)NCCOCCOCCCCCCCl)ccc2C(=O)[O-])c2ccc(N3CCC3)cc21 (stereo partly shown) [14HTL, biotin–JF608–HaloTag ligand]",0.17,–,–,–
"C[Si]1(C)C2=CC(=[N+]3CC(C(=O)NCCOCCOCCNC(=O)CCCC[C@@H]4SC[C@@H]5NC(=O)N[C@@H]54)C3)C=CC2=C(c2cc(C(=O)NCCOCCOCCCCCCCl)ccc2C(=O)[O-])c2ccc(N3CCC3)cc21 (stereo partly shown) [15HTL, biotin–JF646–HaloTag ligand]",0.0086,–,84.2 ± 1.8%,did not increase mitochondria pulldown efficiency
"C[Si]1(C)C2=CC(=[N+]3CC(F)(C(=O)NCCOCCOCCNC(=O)CCCC[C@@H]4SC[C@@H]5NC(=O)N[C@@H]54)C3)C=CC2=C(c2cc(C(=O)NCCOCCOCCCCCCCl)ccc2C(=O)[O-])c2ccc(N3CC(F)C3)cc21 (stereo partly shown) [16HTL, biotin–JF635–HaloTag ligand]",0.0032,–,88.2 ± 1.1%,did not increase mitochondria pulldown efficiency
